12 molecules from ChEMBL document CHEMBL1138908, “Design and structure-activity relationship of 3-benzimidazol-2-yl-1H-indazoles as inhibitors of receptor tyrosine kinases” (Bioorg Med Chem Lett, 2006) can be followed below.

pEC50, pIC50: −log10 of the molar value.

Sequence of Platelet-derived growth factor receptor beta (P05622 whole entry): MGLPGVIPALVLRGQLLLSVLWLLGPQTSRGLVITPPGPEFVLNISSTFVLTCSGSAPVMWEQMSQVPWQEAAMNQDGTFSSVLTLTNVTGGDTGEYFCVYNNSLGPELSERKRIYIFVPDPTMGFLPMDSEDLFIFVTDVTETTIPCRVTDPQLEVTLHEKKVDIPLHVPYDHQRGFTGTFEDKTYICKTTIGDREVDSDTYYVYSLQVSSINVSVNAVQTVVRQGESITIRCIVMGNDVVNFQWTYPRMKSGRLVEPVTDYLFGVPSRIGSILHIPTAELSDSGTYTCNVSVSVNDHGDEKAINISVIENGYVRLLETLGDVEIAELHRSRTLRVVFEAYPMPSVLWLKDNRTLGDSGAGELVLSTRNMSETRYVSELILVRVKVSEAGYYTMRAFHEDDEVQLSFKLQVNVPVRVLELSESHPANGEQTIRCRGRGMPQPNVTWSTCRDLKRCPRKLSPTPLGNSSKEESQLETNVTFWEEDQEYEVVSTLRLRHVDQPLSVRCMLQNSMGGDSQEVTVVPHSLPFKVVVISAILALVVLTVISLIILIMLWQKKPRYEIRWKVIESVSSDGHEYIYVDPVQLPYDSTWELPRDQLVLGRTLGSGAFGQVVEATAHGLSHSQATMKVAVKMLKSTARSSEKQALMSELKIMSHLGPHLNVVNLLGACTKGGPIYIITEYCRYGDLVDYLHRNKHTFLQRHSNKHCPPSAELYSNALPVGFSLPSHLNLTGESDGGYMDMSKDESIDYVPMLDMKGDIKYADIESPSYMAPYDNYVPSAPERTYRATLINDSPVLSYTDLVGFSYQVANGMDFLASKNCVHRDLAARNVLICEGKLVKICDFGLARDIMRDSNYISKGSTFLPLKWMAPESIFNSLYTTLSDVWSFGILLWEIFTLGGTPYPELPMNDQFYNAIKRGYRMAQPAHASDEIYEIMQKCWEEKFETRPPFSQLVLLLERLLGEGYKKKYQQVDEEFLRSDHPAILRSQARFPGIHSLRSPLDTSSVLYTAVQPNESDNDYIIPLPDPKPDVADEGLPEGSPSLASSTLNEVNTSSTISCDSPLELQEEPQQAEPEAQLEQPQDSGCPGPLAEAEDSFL

In one test the target is Vascular endothelial growth factor receptor 2 (Mus musculus, UniProt P35918). Description: Inhibition of VEGFR2.
Sequence of Vascular endothelial growth factor receptor 2 (P35918 whole entry): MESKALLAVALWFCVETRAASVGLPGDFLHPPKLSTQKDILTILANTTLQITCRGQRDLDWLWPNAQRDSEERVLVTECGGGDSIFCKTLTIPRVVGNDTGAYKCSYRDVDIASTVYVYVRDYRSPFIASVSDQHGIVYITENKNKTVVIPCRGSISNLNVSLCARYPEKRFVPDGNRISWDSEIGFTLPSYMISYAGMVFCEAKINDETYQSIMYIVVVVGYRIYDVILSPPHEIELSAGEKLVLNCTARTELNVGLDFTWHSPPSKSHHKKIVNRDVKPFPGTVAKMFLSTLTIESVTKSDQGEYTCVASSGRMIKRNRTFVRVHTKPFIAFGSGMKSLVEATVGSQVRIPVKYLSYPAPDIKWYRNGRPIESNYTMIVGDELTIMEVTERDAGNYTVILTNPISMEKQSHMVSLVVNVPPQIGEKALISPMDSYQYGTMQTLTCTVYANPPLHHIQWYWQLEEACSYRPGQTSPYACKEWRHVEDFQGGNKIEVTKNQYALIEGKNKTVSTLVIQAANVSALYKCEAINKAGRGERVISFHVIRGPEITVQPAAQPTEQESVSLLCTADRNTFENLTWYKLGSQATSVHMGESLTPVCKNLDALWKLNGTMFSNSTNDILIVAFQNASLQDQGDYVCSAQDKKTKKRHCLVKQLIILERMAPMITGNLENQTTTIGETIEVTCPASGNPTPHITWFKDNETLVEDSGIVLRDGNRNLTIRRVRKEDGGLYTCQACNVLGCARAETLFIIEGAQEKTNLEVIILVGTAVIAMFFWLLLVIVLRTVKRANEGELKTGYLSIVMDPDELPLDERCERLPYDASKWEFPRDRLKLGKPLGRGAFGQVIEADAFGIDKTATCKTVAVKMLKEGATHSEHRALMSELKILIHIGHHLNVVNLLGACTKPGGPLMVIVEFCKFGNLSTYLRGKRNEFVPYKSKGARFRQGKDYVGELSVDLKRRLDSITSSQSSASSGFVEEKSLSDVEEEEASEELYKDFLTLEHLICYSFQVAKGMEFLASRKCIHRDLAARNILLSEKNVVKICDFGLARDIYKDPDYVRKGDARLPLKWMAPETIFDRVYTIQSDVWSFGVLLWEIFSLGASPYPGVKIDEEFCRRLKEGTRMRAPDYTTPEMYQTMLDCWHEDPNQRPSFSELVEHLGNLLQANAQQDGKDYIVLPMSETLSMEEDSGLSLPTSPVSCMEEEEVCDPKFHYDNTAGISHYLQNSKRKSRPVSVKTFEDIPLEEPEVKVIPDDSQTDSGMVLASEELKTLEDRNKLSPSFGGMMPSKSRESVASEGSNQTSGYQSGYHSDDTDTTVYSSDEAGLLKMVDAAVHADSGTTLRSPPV
Details: not given
Take `FC(F)(F)c1ccc2c(-c3nc4ccc(N5CCC(N6CCCCC6)CC5)cc4[nH]3)n[nH]c2c1`: the pIC50 (commonly the IC50 on a negative log10 scale, so that one unit is a factor of ten) was 7.28.

`c1ccc(COc2ccc3[nH]nc(-c4nc5ccc(N6CCC(N7CCCCC7)CC6)cc5[nH]4)c3c2)cc1` showed a pIC50 of 7.52.

In turn, `c1ccc2c(-c3nc4cc(-n5ccnc5)ccc4[nH]3)n[nH]c2c1` gave a pIC50 of 7.08.

`CC(C)(C)NC(=O)Nc1ccc2[nH]nc(-c3nc4ccc(N5CCC(N6CCCCC6)CC5)cc4[nH]3)c2c1` had a pIC50 of 8.30.

The molecule `c1ccc2c(-c3nc4ccc(N5CCC(N6CCCCC6)CC5)cc4[nH]3)n[nH]c2c1` had a pIC50 of 7.11.

Molecule `c1cc2[nH]nc(-c3nc4ccc(N5CCC(N6CCCCC6)CC5)cc4[nH]3)c2cc1NCC1CCCCC1` gave a pIC50 of 7.36.

`CC(C)(C)NC(=O)Nc1cccc2[nH]nc(-c3nc4cc(N5CCC(N6CCCCC6)CC5)ccc4[nH]3)c12`: the pIC50 was 7.15.

Turning to `c1ccc(COc2cccc3c(-c4nc5cc(N6CCC(N7CCCCC7)CC6)ccc5[nH]4)[nH]nc23)cc1`, the negative logarithm of the IC50 (pIC50) was under 5.52.

Turning to `COC(=O)c1ccc2[nH]nc(-c3nc4ccc(N5CCC(N6CCCCC6)CC5)cc4[nH]3)c2c1`, the pIC50 was 7.51.

In the case of `c1ccc2[nH]c(-c3n[nH]c4ccccc34)nc2c1`, the pIC50 is 5.48.

In turn, `c1ccc(COc2cccc3[nH]nc(-c4nc5cc(N6CCC(N7CCCCC7)CC6)ccc5[nH]4)c23)cc1` had a pIC50 of 6.18.

The target of another test is Vascular endothelial growth factor receptor 1 (Homo sapiens, UniProt P17948). Nature of the test: Inhibition of VEGFR1.
Sequence of Vascular endothelial growth factor receptor 1 (P17948 whole entry): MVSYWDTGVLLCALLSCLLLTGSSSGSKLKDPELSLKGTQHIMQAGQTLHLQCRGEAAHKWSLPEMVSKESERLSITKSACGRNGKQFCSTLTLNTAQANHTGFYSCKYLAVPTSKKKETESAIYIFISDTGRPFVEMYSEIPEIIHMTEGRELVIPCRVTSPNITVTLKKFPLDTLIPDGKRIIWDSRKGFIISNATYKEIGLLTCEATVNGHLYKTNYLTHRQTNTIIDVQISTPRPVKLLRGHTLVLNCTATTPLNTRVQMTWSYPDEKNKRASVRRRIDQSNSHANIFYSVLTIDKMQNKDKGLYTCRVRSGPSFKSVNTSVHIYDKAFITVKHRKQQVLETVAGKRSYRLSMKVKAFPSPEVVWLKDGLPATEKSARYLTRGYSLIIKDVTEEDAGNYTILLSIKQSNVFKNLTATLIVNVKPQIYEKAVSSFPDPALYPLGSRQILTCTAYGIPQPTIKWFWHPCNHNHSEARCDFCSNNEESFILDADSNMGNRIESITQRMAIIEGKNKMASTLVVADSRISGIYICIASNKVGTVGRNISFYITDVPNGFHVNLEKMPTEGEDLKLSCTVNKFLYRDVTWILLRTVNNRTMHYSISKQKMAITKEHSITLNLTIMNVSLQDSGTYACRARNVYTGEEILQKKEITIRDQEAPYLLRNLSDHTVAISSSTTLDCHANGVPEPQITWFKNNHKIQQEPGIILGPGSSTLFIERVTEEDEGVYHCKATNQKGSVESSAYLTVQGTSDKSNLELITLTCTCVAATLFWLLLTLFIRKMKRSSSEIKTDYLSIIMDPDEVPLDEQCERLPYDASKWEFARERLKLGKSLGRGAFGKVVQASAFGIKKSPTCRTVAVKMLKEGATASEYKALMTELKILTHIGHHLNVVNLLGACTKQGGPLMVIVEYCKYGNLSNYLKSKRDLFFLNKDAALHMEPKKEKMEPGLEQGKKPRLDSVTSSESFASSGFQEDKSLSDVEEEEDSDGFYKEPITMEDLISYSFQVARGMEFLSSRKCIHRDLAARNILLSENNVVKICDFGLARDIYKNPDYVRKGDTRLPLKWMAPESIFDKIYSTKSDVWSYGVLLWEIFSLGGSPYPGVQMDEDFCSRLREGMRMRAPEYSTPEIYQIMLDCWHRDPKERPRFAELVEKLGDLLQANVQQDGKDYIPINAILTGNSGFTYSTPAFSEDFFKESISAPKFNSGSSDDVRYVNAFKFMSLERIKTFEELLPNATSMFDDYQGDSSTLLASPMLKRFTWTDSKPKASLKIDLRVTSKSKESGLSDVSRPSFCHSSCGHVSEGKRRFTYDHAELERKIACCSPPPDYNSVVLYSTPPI
Details: not given
In the case of `c1ccc(COc2ccc3[nH]nc(-c4nc5ccc(N6CCC(N7CCCCC7)CC6)cc5[nH]4)c3c2)cc1`, the pIC50 is 8.52.

Turning to `c1ccc2c(-c3nc4cc(-n5ccnc5)ccc4[nH]3)n[nH]c2c1`, the pIC50 was 7.02.

`c1ccc2c(-c3nc4ccc(N5CCC(N6CCCCC6)CC5)cc4[nH]3)n[nH]c2c1` gave a pIC50 of 7.55.

In turn, `c1cc2[nH]nc(-c3nc4ccc(N5CCC(N6CCCCC6)CC5)cc4[nH]3)c2cc1NCC1CCCCC1` gave a negative logarithm of the IC50 (pIC50) of 7.68.

`CC(C)(C)NC(=O)Nc1cccc2[nH]nc(-c3nc4cc(N5CCC(N6CCCCC6)CC5)ccc4[nH]3)c12` gave a pIC50 of 8.40.

Molecule `c1ccc(COc2cccc3c(-c4nc5cc(N6CCC(N7CCCCC7)CC6)ccc5[nH]4)[nH]nc23)cc1` gave a pIC50 of under 5.52.

In the case of `COC(=O)c1ccc2[nH]nc(-c3nc4ccc(N5CCC(N6CCCCC6)CC5)cc4[nH]3)c2c1`, the pIC50 is 7.82.

In turn, `c1ccc2[nH]c(-c3n[nH]c4ccccc34)nc2c1` had a pIC50 of 6.14.

Turning to `c1ccc(COc2cccc3[nH]nc(-c4nc5cc(N6CCC(N7CCCCC7)CC6)ccc5[nH]4)c23)cc1`, the pIC50 is 7.20.

Another test addresses Platelet-derived growth factor receptor beta (Mus musculus, UniProt P05622). Nature of the test: Inhibition of PDGFRbeta.
Details: not given
Consider `FC(F)(F)c1ccc2c(-c3nc4ccc(N5CCC(N6CCCCC6)CC5)cc4[nH]3)n[nH]c2c1`, for which the pIC50 is 7.21.

The molecule `c1ccc(COc2ccc3[nH]nc(-c4nc5ccc(N6CCC(N7CCCCC7)CC6)cc5[nH]4)c3c2)cc1` gave a pIC50 of 7.08.

`c1ccc2c(-c3nc4cc(-n5ccnc5)ccc4[nH]3)n[nH]c2c1` had a pIC50 of 5.85.

In turn, `CC(C)(C)NC(=O)Nc1ccc2[nH]nc(-c3nc4ccc(N5CCC(N6CCCCC6)CC5)cc4[nH]3)c2c1` showed a pIC50 of 7.09.

On to `c1ccc2c(-c3nc4ccc(N5CCC(N6CCCCC6)CC5)cc4[nH]3)n[nH]c2c1`, for which the pIC50 was 6.16.

The molecule `c1cc2[nH]nc(-c3nc4ccc(N5CCC(N6CCCCC6)CC5)cc4[nH]3)c2cc1NCC1CCCCC1` showed a pIC50 of 5.77.

On to `CC(C)(C)NC(=O)Nc1cccc2[nH]nc(-c3nc4cc(N5CCC(N6CCCCC6)CC5)ccc4[nH]3)c12`, for which the pIC50 is 6.36.

In the case of `c1ccc(COc2cccc3c(-c4nc5cc(N6CCC(N7CCCCC7)CC6)ccc5[nH]4)[nH]nc23)cc1`, the pIC50 is under 5.52.

As to `COC(=O)c1ccc2[nH]nc(-c3nc4ccc(N5CCC(N6CCCCC6)CC5)cc4[nH]3)c2c1`, the pIC50 is 7.20.

In the case of `c1ccc2[nH]c(-c3n[nH]c4ccccc34)nc2c1`, the pIC50 was 5.47.

Regarding `c1ccc(COc2cccc3[nH]nc(-c4nc5cc(N6CCC(N7CCCCC7)CC6)ccc5[nH]4)c23)cc1`, the pIC50 is 5.74.

A further test deals with Fibroblast growth factor receptor 1 (Homo sapiens, UniProt P11362). Nature of the test: Inhibition of FGFR1.
Sequence of Fibroblast growth factor receptor 1 (P11362 whole entry): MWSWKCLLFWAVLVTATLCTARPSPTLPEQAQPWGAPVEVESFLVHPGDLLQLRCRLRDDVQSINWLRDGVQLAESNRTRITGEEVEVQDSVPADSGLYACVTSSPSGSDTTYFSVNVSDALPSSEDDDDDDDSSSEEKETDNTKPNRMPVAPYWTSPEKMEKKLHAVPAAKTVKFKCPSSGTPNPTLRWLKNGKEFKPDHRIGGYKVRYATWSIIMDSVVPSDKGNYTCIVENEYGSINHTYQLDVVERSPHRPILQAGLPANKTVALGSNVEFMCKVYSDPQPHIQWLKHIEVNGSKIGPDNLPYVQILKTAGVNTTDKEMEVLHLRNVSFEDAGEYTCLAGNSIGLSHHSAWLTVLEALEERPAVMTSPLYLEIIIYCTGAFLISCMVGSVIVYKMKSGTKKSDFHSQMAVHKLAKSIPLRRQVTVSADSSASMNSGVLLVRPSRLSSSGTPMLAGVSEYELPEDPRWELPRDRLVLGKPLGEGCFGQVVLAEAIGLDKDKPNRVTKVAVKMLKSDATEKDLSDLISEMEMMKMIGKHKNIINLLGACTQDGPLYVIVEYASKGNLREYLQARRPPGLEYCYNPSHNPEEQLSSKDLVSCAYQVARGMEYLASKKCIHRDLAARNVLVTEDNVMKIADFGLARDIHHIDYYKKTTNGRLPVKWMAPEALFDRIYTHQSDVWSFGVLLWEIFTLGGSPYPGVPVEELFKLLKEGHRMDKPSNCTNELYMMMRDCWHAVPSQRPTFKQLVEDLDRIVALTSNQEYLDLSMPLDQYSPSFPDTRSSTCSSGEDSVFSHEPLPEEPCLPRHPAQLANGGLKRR
Details: not given
Molecule `c1ccc(COc2ccc3[nH]nc(-c4nc5ccc(N6CCC(N7CCCCC7)CC6)cc5[nH]4)c3c2)cc1` showed a pIC50 of 8.10.

In turn, `c1ccc2c(-c3nc4cc(-n5ccnc5)ccc4[nH]3)n[nH]c2c1` showed a pIC50 of 6.68.

Consider `c1ccc2c(-c3nc4ccc(N5CCC(N6CCCCC6)CC5)cc4[nH]3)n[nH]c2c1`, for which the negative-log IC50 (pIC50) was 7.32.

`c1cc2[nH]nc(-c3nc4ccc(N5CCC(N6CCCCC6)CC5)cc4[nH]3)c2cc1NCC1CCCCC1` had a pIC50 of 7.80.

Consider `CC(C)(C)NC(=O)Nc1cccc2[nH]nc(-c3nc4cc(N5CCC(N6CCCCC6)CC5)ccc4[nH]3)c12`, for which the pIC50 was 8.52.

The molecule `c1ccc(COc2cccc3c(-c4nc5cc(N6CCC(N7CCCCC7)CC6)ccc5[nH]4)[nH]nc23)cc1` gave a pIC50 of under 5.52.

Turning to `COC(=O)c1ccc2[nH]nc(-c3nc4ccc(N5CCC(N6CCCCC6)CC5)cc4[nH]3)c2c1`, the pIC50 was 7.14.

Take `c1ccc2[nH]c(-c3n[nH]c4ccccc34)nc2c1`: the pIC50 was 5.85.

The molecule `c1ccc(COc2cccc3[nH]nc(-c4nc5cc(N6CCC(N7CCCCC7)CC6)ccc5[nH]4)c23)cc1` had a pIC50 of 7.03.

For the next test, the system named is HMEC. Nature of the test: Inhibition of VEGF-mediated proliferation of HMVEC. It counts as functional, cell-based. The note with it: Homo sapiens.
Take `FC(F)(F)c1ccc2c(-c3nc4ccc(N5CCC(N6CCCCC6)CC5)cc4[nH]3)n[nH]c2c1`: the pEC50 – broadly, the negative decadic logarithm of the EC50, by convention in mol/L – was 8.40.

Take `c1ccc(COc2ccc3[nH]nc(-c4nc5ccc(N6CCC(N7CCCCC7)CC6)cc5[nH]4)c3c2)cc1`: the pEC50 was 6.72.

With `c1ccc2c(-c3nc4cc(-n5ccnc5)ccc4[nH]3)n[nH]c2c1`, the pEC50 is 5.15.

Turning to `CC(C)(C)NC(=O)Nc1ccc2[nH]nc(-c3nc4ccc(N5CCC(N6CCCCC6)CC5)cc4[nH]3)c2c1`, the pEC50 is 6.46.

Molecule `c1ccc2c(-c3nc4ccc(N5CCC(N6CCCCC6)CC5)cc4[nH]3)n[nH]c2c1` had a pEC50 of 7.01.

Regarding `c1cc2[nH]nc(-c3nc4ccc(N5CCC(N6CCCCC6)CC5)cc4[nH]3)c2cc1NCC1CCCCC1`, the pEC50 was 6.66.

In the case of `CC(C)(C)NC(=O)Nc1cccc2[nH]nc(-c3nc4cc(N5CCC(N6CCCCC6)CC5)ccc4[nH]3)c12`, the pEC50 was 6.62.

`c1ccc(COc2cccc3c(-c4nc5cc(N6CCC(N7CCCCC7)CC6)ccc5[nH]4)[nH]nc23)cc1`: the pEC50 is 5.74.

`COC(=O)c1ccc2[nH]nc(-c3nc4ccc(N5CCC(N6CCCCC6)CC5)cc4[nH]3)c2c1` showed a pEC50 of 6.89.

Regarding `Nc1c(-c2nc3ccccc3[nH]2)c(=O)[nH]c2ccccc12`, the pEC50 is 7.11.

For the molecule `c1ccc2[nH]c(-c3n[nH]c4ccccc34)nc2c1`, the negative logarithm of the EC50 (pEC50) was 5.23.

On to `c1ccc(COc2cccc3[nH]nc(-c4nc5cc(N6CCC(N7CCCCC7)CC6)ccc5[nH]4)c23)cc1`, for which the pEC50 is 6.34.
